The record followed here is patent US11780826B2 (Amgen Inc., priority 2017, dated 2023).

Each structure is given as a SMILES string.

For this experiment, the system named is Bovine cardiac myofibrils. Nature of the experiment: In vitro model of dose-dependent myofibril ATPase modulation (AC1.4, pyruvate kinase/lactate dehydrogenase-coupled ATPase assay at pCa25). Type of experiment: biochemical. As to conditions: concentration at which ATPase activity was 1.4-fold higher than the bottom of the dose curve, mean of a minimum of two independent tests. Here is the method: In vitro Model of Dose-Dependent Myofibril ATPase Modulation: Dose responses were measured using a calcium-buffered, pyruvate kinase and lactate dehydrogenase-coupled ATPase assay containing the following reagents (concentrations expressed are final assay concentrations): Potassium PIPES (12 mM), MgCl2 (2 mM), ATP (1 mM), DTT (1 mM), BSA (0.1 mg/mi), NADH (0.5 mM), PEP (1.5 mM), pyruvate kinase (4 U/ml), lactate dehydrogenase (8 U/ml), and antifoam (90 ppm). The pH was adjusted to 6.80 at 22° C. by addition of potassium hydroxide.
Bovine cardiac myofibrils were obtained by homogenizing the appropriate tissue in the presence of detergent. Such treatment removes membranes and majority of soluble cytoplasmic proteins but leaves intact cardiac sarcomeric acto-myosin apparatus. Concentrations of myofibrils were adjusted to achieve the necessary rate of ATP hydrolysis (typically 0.25-1.0 mg/ml).
Assays were performed by first preparing a dilution series of test chemical entity, each with an assay mixture containing potassium Pipes, MgCl2, BSA, DTT, pyruvate kinase, lactate dehydrogenase, myofibrils, antifoam, EGTA, CaCl2, and water. The assay was started by adding an equal volume of solution containing potassium Pipes, MgCl2, BSA, DTT, ATP, NADH, PEP, antifoam, and water. ATP hydrolysis was monitored by absorbance at 340 nm. The resulting dose response curve was fit by the 4 parameter equation y=Bottom+((Top−Bottom)/(1+((EC50/X)^Hill))). […] AC1.4 values reported in the table below are mean values based on a minimum of two independent tests.
`CS(=O)(=O)c1cccc(C(=O)N2CC[C@@H]3C[C@]32C(=O)N[C@@H](c2ccc(C(F)(F)F)cc2F)C2CC2)c1` [Example 751, (1R,5R)-N-((R)-cyclopropyl(2-fluoro-4-(trifluoromethyl)phenyl)methyl)-2-(3-(methylsulfonyl)benzoyl)-2-azabicyclo[3.1.0]hexane-1-carboxamide] came in with an AC1.4 of 7.3925 µM.

Compound `COc1cc(Cl)ccc1CNC(=O)[C@H]1CCCN1C(=O)[C@H]1CCCN(S(=O)(=O)N2CC(C#N)C2)C1` [Example 176, N-(4-chloro-2-methoxybenzyl)-1-(((3S)-1-((3-cyano-1-azetidinyl)sulfonyl)-3-piperidinyl)carbonyl)-D-prolinamide] yielded an AC1.4 of 0.3085 µM.

Compound `Cc1ccc(S(C)(=O)=O)cc1C(=O)N1CCC[C@@H]1C(=O)N[C@@H](c1ccc(C(F)(F)F)cc1F)C1CC1` [Example 666, N-((R)-cyclopropyl(2-fluoro-4-(trifluoromethyl)phenyl)methyl)-1-(2-methyl-5-(methylsulfonyl)benzoyl)-D-prolinamide] returned an AC1.4 of 4.7065 µM.

Take `CS(=O)(=O)c1cccc(C(=O)N2[C@@H](C(=O)N[C@@H](c3cc(F)c(C(F)F)cc3F)C3CC3)C[C@H]3C[C@H]32)c1` [Example 197, (1R,3R,5R)-N-((R)-cyclopropyl(4-(difluoromethyl)-2,5-difluorophenyl)methyl)-2-(3-(methylsulfonyl)benzoyl)-2-azabicyclo[3.1.0]hexane-3-carboxamide]: the AC1.4 stood at 0.3963 µM.

The compound `N#CC1CN(S(=O)(=O)N2CCC[C@H](C(=O)N3CCC[C@@H]3C(=O)NCc3ccc(F)cc3)C2)C1` [Example 437, 1-(((3S)-1-((3-cyano-1-azetidinyl)sulfonyl)-3-piperidinyl)carbonyl)-N-(4-fluorobenzyl)-D-prolinamide] gave an AC1.4 of 1.7085 µM.

Take `N#CC1CN(S(=O)(=O)c2cccc(C(=O)N3CCC[C@@H]3C(=O)N[C@H](CO)c3cccc(C(F)(F)F)c3)c2)C1` [Example 158, 1-(3-((3-cyano-1-azetidinyl)sulfonyl)benzoyl)-N-((1S)-2-hydroxy-1-(3-(trifluoromethyl)phenyl)ethyl)-D-prolinamide]: the AC1.4 came out at 0.273 µM.

On to `Cc1cc(C(F)(F)F)ccc1CNC(=O)[C@H]1CCCN1C(=O)[C@H]1CCCN(S(=O)(=O)N2CC(C#N)C2)C1` [Example 60, 1-(((3S)-1-((3-cyano-1-azetidinyl)sulfonyl)-3-piperidinyl)carbonyl)-N-(2-methyl-4-(trifluoromethyl)benzyl)-D-prolinamide], for which the AC1.4 was 0.0657 µM.

As to `O=C(N[C@@H](c1ccc(C(F)(F)F)cc1F)C1CC1)[C@H]1CCCN1C(=O)c1cccc(C(O)(O)C(F)(F)F)c1` [Example 523, (R)—N—((R)-cyclopropyl(2-fluoro-4-(trifluoromethyl)phenyl)methyl)-1-(3-(2,2,2-trifluoro-1,1-dihydroxyethyl)benzoyl)pyrrolidine-2-carboxamide], the AC1.4 was found to be 2.582 µM.

Compound `CS(=O)(=O)c1cccc(C(=O)N2CCCC[C@@H]2C(=O)N[C@@H](c2ccc(C(F)(F)F)c(F)c2)C2CC2)c1` [Example 300, (2R)-N-((R)-cyclopropyl(3-fluoro-4-(trifluoromethyl)phenyl)methyl)-1-(3-(methylsulfonyl)benzoyl)-2-piperidinecarboxamide] displayed an AC1.4 of 0.7928 µM.

Regarding `N#CC1CN(S(=O)(=O)N2CCC[C@H](C(=O)N3CCC[C@@H]3C(=O)NCc3cc(F)cc(Cl)c3)C2)C1` [Example 313, N-(3-chloro-5-fluorobenzyl)-1-(((3S)-1-((3-cyano-1-azetidinyl)sulfonyl)-3-piperidinyl)carbonyl)-D-prolinamide], the AC1.4 amounted to 0.8424 µM.

The compound `O=C(O)CS(=O)(=O)c1cccc(C(=O)N2[C@@H](C(=O)N[C@@H](c3cc(F)c(C(F)(F)F)cc3F)C3CC3)C[C@H]3C[C@H]32)c1` [Example 306, ((3-(((1R,3R,5R)-3-(((R)-cyclopropyl(2,5-difluoro-4-(trifluoromethyl)phenyl)methyl)carbamoyl)-2-azabicyclo[3.1.0]hexan-2-yl)carbonyl)phenyl)sulfonyl)acetic acid] came in with an AC1.4 of 0.8057 µM.

`Cc1cc(C(=O)N2[C@@H](C(=O)N[C@@H](c3ccc(C(F)(F)F)cc3F)C3CC3)C[C@H]3C[C@H]32)c(NC2CC2)cn1` [Example 458, (1R,3R,5R)-2-((5-(cyclopropylamino)-2-methyl-4-pyridinyl)carbonyl)-N-((R)-cyclopropyl(2-fluoro-4-(trifluoromethyl)phenyl)methyl)-2-azabicyclo[3.1.0]hexane-3-carboxamide]: the AC1.4 came to 1.5845 µM.

The compound `N#CC1CN(S(=O)(=O)N2CCC[C@H](C(=O)N3CCC[C@@H]3C(=O)NCc3cc(F)ccc3Cl)C2)C1` [Example 440, N-(2-chloro-5-fluorobenzyl)-1-(((3S)-1-((3-cyano-1-azetidinyl)sulfonyl)-3-piperidinyl)carbonyl)-D-prolinamide] showed an AC1.4 of 1.7235 µM.

Compound `O=C(NCc1ccc(C(F)(F)F)cc1)[C@H]1CCCN1C(=O)[C@H]1CCCN(S(=O)(=O)N2CC(OC(F)F)C2)C1` [Example 343, 1-(((3S)-1-((3-(difluoromethoxy)-1-azetidinyl)sulfonyl)-3-piperidinyl)carbonyl)-N-(4-(trifluoromethyl)benzyl)-D-prolinamide] displayed an AC1.4 of 0.9742 µM.

On to `O=C(NCc1ccc(C(F)(F)F)cc1)[C@H]1CCCN1C(=O)[C@H]1CCCN(S(=O)(=O)C2COC2)C1` [Example 664, 1-(((3S)-1-(3-oxetanylsulfonyl)-3-piperidinyl)carbonyl)-N-(4-(trifluoromethyl)benzyl)-D-prolinamide], for which the AC1.4 came to 4.669 µM.

`N#CC1CN(S(=O)(=O)c2cccc(C(=O)N3CCC[C@@H]3C(=O)N[C@H](CO)c3ccc(Cl)c(F)c3)c2)C1` [Example 24, N-((1S)-1-(4-chloro-3-fluorophenyl)-2-hydroxyethyl)-1-(3-((3-cyano-1-azetidinyl)sulfonyl)benzoyl)-D-prolinamide] showed an AC1.4 of 0.02875 µM.

In the case of `N#CC1CN(S(=O)(=O)N2CCC[C@H](C(=O)N3CCC[C@@H]3C(=O)N[C@H](CC(F)(F)F)c3ccc(C(F)(F)F)cc3)C2)C1` [Example 28, 1-(((3S)-1-((3-cyano-1-azetidinyl)sulfonyl)-3-piperidinyl)carbonyl)-N-((1R)-3,3,3-trifluoro-1-(4-(trifluoromethyl)phenyl)propyl)-D-prolinamide], the AC1.4 worked out at 0.03125 µM.

Compound `CCNc1ccc(C)cc1C(=O)N1C[C@H](O)C[C@@H]1C(=O)N[C@@H](c1cc(F)c(Cl)cc1F)C1COC1` [Example 34, (4R)-N-((R)-(4-chloro-2,5-difluorophenyl)(3-oxetanyl)methyl)-1-(2-(ethylamino)-5-methylbenzoyl)-4-hydroxy-D-prolinamide] gave an AC1.4 of 0.0361 µM.

In turn, `CC(C)(C)Nc1ccc(S(C)(=O)=O)cc1C(=O)N1CCC[C@@H]1C(=O)N[C@@H](c1ccc(C(F)(F)F)cc1F)C1CC1` [Example 186, N-((R)-cyclopropyl(2-fluoro-4-(trifluoromethyl)phenyl)methyl)-1-(2-((2-methyl-2-propanyl)amino)-5-(methylsulfonyl)benzoyl)-D-prolinamide] yielded an AC1.4 of 0.3372 µM.

On to `N#CC1(c2cccc(C(=O)N3CCC[C@@H]3C(=O)N[C@@H](c3ccc(C(F)(F)F)cc3F)C3CC3)c2)CC1` [Example 604, 1-(3-(l-cyanocyclopropyl)benzoyl)-N-((R)-cyclopropyl(2-fluoro-4-(trifluoromethyl)phenyl)methyl)-D-prolinamide], for which the AC1.4 came out at 3.679 µM.

For the compound `O=C(N[C@@H](c1cc(F)c(Cl)cc1F)C1COC1)[C@H]1C[C@H]2C[C@H]2N1C(=O)c1cccc(C(F)(F)F)n1` [Example 529, (1R,3R,5R)-N-((R)-(4-chloro-2,5-difluorophenyl)(3-oxetanyl)methyl)-2-((6-(trifluoromethyl)-2-pyridinyl)carbonyl)-2-azabicyclo[3.1.0]hexane-3-carboxamide], the AC1.4 came to 2.4895 µM.

Compound `CCc1ccnc(C(=O)N2[C@@H](C(=O)N[C@@H](c3cc(F)c(Cl)cc3F)C3COC3)C[C@H]3C[C@H]32)c1` [Example 555, (1R,3R,5R)-N-((R)-(4-chloro-2,5-difluorophenyl)(3-oxetanyl)methyl)-2-((4-ethyl-2-pyridinyl)carbonyl)-2-azabicyclo[3.1.0]hexane-3-carboxamide] came in with an AC1.4 of 2.893 µM.

In turn, `CC(NC(=O)[C@H]1CCCN1C(=O)[C@H]1CCCN(S(=O)(=O)N2CC(C#N)C2)C1)c1ccc(F)cc1` (stereo partly drawn) [Example 729, 1-(((3S)-1-((3-cyano-1-azetidinyl)sulfonyl)-3-piperidinyl)carbonyl)-N-((1R)-1-(4-fluorophenyl)ethyl)-D-prolinamide,1-(((3S)-1-((3-cyano-1-azetidinyl)sulfonyl)-3-piperidinyl)carbonyl)-N-((1S)-1-(4-fluorophenyl)ethyl)-D-prolinamide] returned an AC1.4 of 6.7185 µM.

`C[C@H](C(=O)NCc1ccc(Cl)c(Cl)c1)N(C)C(=O)c1cccc(S(=O)(=O)N2CC(C#N)C2)c1` [Example 341, 3-((3-cyano-1-azetidinyl)sulfonyl)-N-((1R)-2-((3,4-dichlorobenzyl)amino)-1-methyl-2-oxoethyl)-N-methylbenzamide] returned an AC1.4 of 0.9606 µM.
